Assay results taken from US20230027985A1, “SUBSTITUTED HYDANTOINAMIDES AS ADAMTS7 ANTAGONISTS” (Bayer Aktiengesellschaft, priority 2019, published 2023).

Key:
[1] = biological target: T1, Purified recombinant ADAMTS-7 (rat prodomain/human catalytic domain, SEQ ID No. 01 or 02) (Homo sapiens, UniProt Q9UKP4); assay: Assay for ADAMTS-7 enzymatic activity (FRET substrate cleavage); assay type: biochemical; settings: FRET substrate SEQ ID No. 11, 120 min at 32° C.; read-out: ADAMTS7-IC50
T1 construct: rat ADAMTS-7 signal peptide + prodomain (rat 1-217, Q1EHB3) (N); 2xStrep tag (C); 6xHis tag (C); made in house; host or cells: Expi293 cells
T1 sequence (Q9UKP4 237-537): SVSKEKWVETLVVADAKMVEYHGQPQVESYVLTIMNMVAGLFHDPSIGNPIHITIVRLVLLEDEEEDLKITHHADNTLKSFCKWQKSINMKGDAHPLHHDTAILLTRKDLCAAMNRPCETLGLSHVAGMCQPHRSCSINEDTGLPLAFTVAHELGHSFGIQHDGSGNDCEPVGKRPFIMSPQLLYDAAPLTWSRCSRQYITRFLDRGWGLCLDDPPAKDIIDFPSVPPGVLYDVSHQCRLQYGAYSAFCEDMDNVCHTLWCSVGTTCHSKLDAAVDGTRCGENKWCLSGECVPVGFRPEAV
Description: Purified recombinant ADAMTS-7 (as of SEQ ID No. 01 or SEQ ID No. 02) was diluted in reaction buffer (20 mM HEPES pH 8.0, 150 mM NaCl, 5 mM CaCl2, 0.004% Brij, 10 μM ZnCl2) fora concentration of approximately 20 nM. 25 μl of the solution were transferred into each well of a 384-well white microtiter plate (Greiner Bio-One 781075) and 1 μl test compound solution (modulator/inhibitor dissolved in DMSO, at the corresponding concentration) or pure DMSO as a control were added per well. […] Amino acids […] are derived from Thrombospondin-1 sequence (275-289). An additional carboxyl glutamic acid was added after the QXL520 quencher to increase substrate solubility. The microtiter plate was incubated for 120 min at the temperature of 32° C. The increase of fluorescence intensity was measured in appropriate fluorescence plate reader (e.g. TECAN Ultra) using excitation wavelength of 485 nm and emission wavelength of 520 nm. IC50 values were calculated from percentage of inhibition of ADAMTS-7 activity as a function of test compound concentration.

ADAMTS4 = biological target: T2, ADAMTS4 (Homo sapiens, UniProt O75173); assay: Selectivity assay for ADAMTS-7 modulators (FRET), ADAMTS4; assay type: biochemical; settings: 50 nM enzyme (R&D 4307-AD), 1 μM Dabcyl/Edans FRET substrate, 120 min at 32° C.
T2 construct: purchased R&D 4307-AD
T2 sequence (O75173 213-685 limits assumed): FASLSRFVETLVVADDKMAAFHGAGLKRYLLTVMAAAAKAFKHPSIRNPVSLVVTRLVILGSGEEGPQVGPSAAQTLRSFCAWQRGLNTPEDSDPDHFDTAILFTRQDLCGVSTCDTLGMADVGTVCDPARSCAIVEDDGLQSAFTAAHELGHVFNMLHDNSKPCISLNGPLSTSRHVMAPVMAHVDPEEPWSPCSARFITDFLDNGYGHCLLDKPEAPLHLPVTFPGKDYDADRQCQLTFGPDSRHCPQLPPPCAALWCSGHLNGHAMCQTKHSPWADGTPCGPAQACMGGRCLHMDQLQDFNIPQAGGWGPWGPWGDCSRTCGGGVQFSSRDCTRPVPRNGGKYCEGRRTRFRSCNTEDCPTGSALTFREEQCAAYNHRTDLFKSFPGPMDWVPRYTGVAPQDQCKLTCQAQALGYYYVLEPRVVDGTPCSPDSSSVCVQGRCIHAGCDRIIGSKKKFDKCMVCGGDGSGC
Description: The respective enzyme (see table 2 below) was diluted in reaction buffer (50 mM Tris, 2.5 μM ZnCl2, 0.05% BSA, 0.001% Brij, pH 7.5 for ADAM17; 50 mM Tris 7.5, 150 mM NaCl, 10 mM CaCl2, 0.05% Brij for all other enzymes) to the respective concentration and 25 μl were transferred into each well of a 384-well white microtiter plate (Greiner Bio One 781075). 1 μl test compound solution (dissolved in DMSO, at the corresponding concentration) or pure DMSO as a control was added per well. The enzymatic reaction was initiated by addition of 25 μl of the respective concentration of the respective FRET substrate (see table 2 below) in reaction buffer. The microtiter plate was incubated for 120 min at the temperature of 32° C. The increase of fluorescence intensity was measured in appropriate fluorescence plate reader (e.g. TECAN Ultra) using the respective wavelengths for excitation and emission. IC50 values were calculated from percentage of inhibition of enzyme activity as a function of test compound concentration.

| SMILES | IC50 [1] [nM] | IC50 (ADAMTS4) [nM] |
| --- | --- | --- |
| CC(C)(C)C1(CNC(=O)c2cnn(-c3ccc(C(F)(F)F)c(F)c3)n2)NC(=O)NC1=O (racemic) [Example 2, rac-N-{[4-tert-butyl-2,5-dioxoimidazolidin-4-yl]methyl}-2-[3-fluoro-4-(trifluoromethyl)phenyl]-2H-1,2,3-triazole-4-carboxamide] | 210 | – |
| CC(C)(C)C1(CNC(=O)c2cnn(-c3cccc(F)c3)n2)NC(=O)NC1=O (racemic) [Example 4, rac-N-{[4-tert-butyl-2,5-dioxoimidazolidin-4-yl]methyl}-2-(3-fluorophenyl)-2H-1,2,3-triazole-4-carboxamide] | 260 | 6600 |
| CC(C)(C)C1(CNC(=O)c2cnn(-c3ccc(C(F)(F)F)cc3)n2)NC(=O)NC1=O (racemic) [Example 6, rac-N-[(4-tert-butyl-2,5-dioxoimidazolidin-4-yl)methyl]-2-[4-(trifluoromethyl)phenyl]-2H-1,2,3-triazole-4-carboxamide] | 620 | – |
| O=C1NC(=O)C(CNC(=O)c2cnn(-c3ccccc3)n2)(C2CCCOC2)N1 (racemic) [Example 7, rac-N-{[2,5-dioxo-4-(tetrahydro-2H-pyran-3-yl)imidazolidin-4-yl]methyl}-2-phenyl-2H-1,2,3-triazole-4-carboxamide] | 62 | 8500 |
| O=C1NC(=O)C(CNC(=O)c2cnn(-c3ccccc3)n2)(C2CCOC2)N1 (racemic) [Example 19, rac-N-{[2,5-dioxo-4-(tetrahydrofuran-3-yl)imidazolidin-4-yl]methyl}-2-phenyl-2H-1,2,3-triazole-4-carboxamide] | 170 | 22000 |
| O=C1NC(=O)C(CNC(=O)c2cnn(-c3ccccc3)n2)(c2ccccn2)N1 (racemic) [Example 20, rac-N-{[2,5-dioxo-4-(pyridin-2-yl)imidazolidin-4-yl]methyl}-2-phenyl-2H-1,2,3-triazole-4-carboxamide] | 26 | 4800 |
| O=C1NC(=O)C(CNC(=O)c2cnn(-c3ccccc3)n2)(c2ccncc2)N1 (racemic) [Example 21, rac-N-{[2,5-dioxo-4-(pyridin-4-yl)imidazolidin-4-yl]methyl}-2-phenyl-2H-1,2,3-triazole-4-carboxamide] | 200 | 2800 |
| O=C1NC(=O)C(CNC(=O)c2cnn(-c3ccc(F)cc3)n2)(c2ccccn2)N1 (racemic) [Example 22, rac-N-{[2,5-dioxo-4-(pyridin-2-yl)imidazolidin-4-yl]methyl}-2-(4-fluorophenyl)-2H-1,2,3-triazole-4-carboxamide] | 10 | 3000 |
| O=C1NC(=O)C(CNC(=O)c2cnn(-c3ccc(F)cc3)n2)(c2cccnc2)N1 (racemic) [Example 23, rac-N-{[2,5-dioxo-4-(pyridin-3-yl)imidazolidin-4-yl]methyl}-2-(4-fluorophenyl)-2H-1,2,3-triazole-4-carboxamide] | 30 | 4500 |
| O=C1NC(=O)C(CNC(=O)c2cnn(-c3ccc(F)cc3)n2)(c2ccncc2)N1 (racemic) [Example 24, rac-N-{[2,5-dioxo-4-(pyridin-4-yl)imidazolidin-4-yl]methyl}-2-(4-fluorophenyl)-2H-1,2,3-triazole-4-carboxamide] | 140 | 2900 |
| CC(C)C1(CNC(=O)c2cnn(-c3ccccc3)n2)NC(=O)NC1=O (racemic) [Example 48, rac-N-[(2,5-dioxo-4-(propan-2-yl)imidazolidin-4-yl)methyl]-2-phenyl-2H-1,2,3-triazole-4-carboxamide] | 265 | 14500 |
| CC(C)(C)C1(CNC(=O)c2cnn(-c3ccccc3)n2)NC(=O)NC1=O (racemic) [Example 49, rac-[(4-tert-butyl-2,5-dioxoimidazolidin-4-yl)methyl]-2-phenyl-2H-1,2,3-triazole-4-carboxamide] | 70 | 15000 |
| O=C1NC(=O)C(CNC(=O)c2cnn(-c3ccccc3)n2)(C2CCCC2)N1 (racemic) [Example 50, rac-N-[(4-cyclopentyl-2,5-dioxoimidazolidin-4-yl)methyl]-2-phenyl-2H-1,2,3-triazole-4-carboxamide] | 191 | – |
| CCCCC1(CNC(=O)c2cnn(-c3ccccc3)n2)NC(=O)NC1=O (racemic) [Example 51, rac-N-[(4-butyl-2,5-dioxoimidazolidin-4-yl)methyl]-2-phenyl-2H-1,2,3-triazole-4-carboxamide] | 89 | 15000 |
| O=C1NC(=O)C(CNC(=O)c2cnn(-c3ccccc3)n2)(C2CCC2)N1 (racemic) [Example 52, rac-N-[4-cyclobutyl-2,5-dioxoimidazolidin-4-yl)methyl]-2-phenyl-2H-1,2,3-triazole-4-carboxamide] | 55 | 14000 |
| O=C1NC(=O)C(CNC(=O)c2cnn(-c3ccccc3)n2)(C2CCCCC2)N1 (racemic) [Example 53, rac-N-[(4-cyclohexyl-2,5-dioxoimidazolidin-4-yl)methyl]-2-phenyl-2H-1,2,3-triazole-4-carboxamide] | 145 | – |
| O=C1NC(=O)C(CNC(=O)c2cnn(-c3ccc(F)cc3)n2)(CC2CC2)N1 (racemic) [Example 64, rac-N-[4-(cyclopropylmethyl)-2,5-dioxoimidazolidin-4-yl)methyl]-2-(4-fluorophenyl)-2H-1,2,3-triazole-4-carboxamide] | 240 | – |
| O=C1NC(=O)C(CNC(=O)c2cnn(-c3ccc(F)cc3)n2)(C2CCCC2)N1 (racemic) [Example 66, rac-N-[(4-cyclopentyl-2,5-dioxoimidazolidin-4-yl]methyl]-2-(4-fluorophenyl)-2H-1,2,3-triazole-4-carboxamide] | 380 | – |
| O=C1NC(=O)C(CNC(=O)c2cnn(-c3ccc(F)cc3)n2)(c2ncsc2C2CC2)N1 (racemic) [Example 157, rac-N-{[4-(5-cyclopropyl-1,3-thiazol-4-yl)-2,5-dioxoimidazolidin-4-yl]methyl}-2-(4-fluorophenyl)-2H-1,2,3-triazole-4-carboxamide] | – | 460 |
| O=C1NC(=O)C(CNC(=O)c2cnn(-c3ccc(F)cc3)n2)(c2ccccn2)N1 (single isomer, unassigned) [Example 138, ent-N-{[2,5-dioxo-4-(pyridin-2-yl)imidazolidin-4-yl]methyl}-2-(4-fluorophenyl)-2H-1,2,3-triazole-4-carboxamide] | 590 | – |
| O=C1NC(=O)C(CNC(=O)c2cnn(-c3ccc(Cl)c(F)c3)n2)(C2CCC2)N1 (single isomer, unassigned; ent-2) [Example 89, ent-2-(4-chloro-3-fluorophenyl)-N-[(4-cyclobutyl-2,5-dioxoimidazolidin-4-yl)methyl]-2H-1,2,3-triazole-4-carboxamide] | – | 975 |
| C[C@@H](NC(=O)c1cnn(-c2ccccc2)n1)C1(C2CC2)NC(=O)NC1=O (stereo partly drawn) [Example 39, ent-N-((1R)-1-(4-Cyclopropyl-2,5-dioxoimidazolidin-4-yl)ethyl)-2-phenyl-2H-1,2,3-triazole-4-carboxamide] | 710 | – |
